Values of other authors as cited in patent publication US20130217743A1, “CANCER PREVENTION AND TREATMENT METHODS BASED ON DIETARY POLYAMINE CONTENT” (CANCER PREVENTION PHARMACEUTICALS, INC., priority 2010, published 2013).

Assays:
[1] = system: tumors harboring Ki-ras mutations; settings: AOM-treated rats; reduced from 90%
tumor putrescine levels = settings: rat-tumor model, DFMO infusion
[2] = system: prostoglandin E2 (PGE2) levels in flat mucosa; settings: 300 mg/day, one month
[3] = for mean half-life: in vivo
[4] = human, in vivo

## NCCCC(N)(C(=O)O)C(F)F (racemic) [DFMO, 2-(difluoromethyl)-dl-ornithine]
[1]
  number of tumors harboring Ki-ras mutations: 36%
Tumor putrescine levels
  decrease in tumor putrescine levels: 90%

## CC1=C(CC(=O)O)c2cc(F)ccc2/C1=C\c1ccc(S(C)(=O)=O)cc1 [Sulindac sulfone]
COX
  COX-inhibitory activity: lacks COX-inhibitory activity

## CC(C)Cc1ccc(C(C)C(=O)O)cc1 (centres unmarked) [ibuprofen]
[2]
  PGE2 levels in flat mucosa: significant decrease

## CN1C(C(=O)Nc2ccccn2)=C(O)c2ccccc2S1(=O)=O [piroxicam, 4-hydroxy-2-methyl-N-2-pyridyl-2H-1,2-benzothiazine-3-carboxamide 1,1-dioxide]
[1]
  number of tumors harboring Ki-ras mutations: 25%

## CSc1ccc(/C=C2/C(C)=C(CC(=O)O)c3cc(F)ccc32)cc1 [sulfide metabolite]
[3]
  mean half-life: 16.4 h

## CC1=C(CC(=O)O)c2cc(F)ccc2/C1=C\c1ccc([S+](C)[O-])cc1 (centres unmarked) [sulindac, (Z)-5-fluoro-2-methyl-1-((4(methylsulfinyl)phenyl)methylene) 1H-indene-3-acetic acid]
[3]; after oral administration
  drug absorbed: about 90%
[3]; fasting patients
  time to peak plasma levels: about 2 hours
[3]
  mean half-life: 7.8 h
[4]
  mild gastrointestinal effects, patients: ~20%
  skin rash and pruritus, patients: 5%
